Test results taken from paper PMC11714206, “Massively Parallel Screening of Toll/Interleukin‐1 Receptor (TIR)‐Derived Peptides Reveals Multiple Toll‐Like Receptors (TLRs)‐Targeting Immunomodulatory Peptides” (Advanced Science, 2024).
Values belong to the sequence of their own block, whether it stands above or below them.

Target: T1, MyD88^TIR (Homo sapiens, UniProt Q99836)
T1 construct: MyD88 (residues 148–296); 6xHis; made in house; host or cells: E. coli BL21 (DE3)
Experiment: T‐Surf phage library (P8 and P3) selection against MyD88^TIR, four rounds, NGS read counts
Assay type: binding
Conditions: for Population: 4th round of selection against MyD88 TIR, share of NGS reads; for P8_MyD88 Rank (after) / P8_MyD88 Rank (before): P8 library; for P3_MyD88 Rank (after) / P3_MyD88 Rank (before): P3 library
Description: T‐Surf libraries were screened against the immobilized TIR domains of two major human TLR adaptor proteins, MAL^TIR and MyD88^TIR, allowing cross‐species selection of TIR‐binding motifs with 190 946 TIR‐derived peptides in a single binding assay (Scheme 1). Enriched phage pools from the fourth round of selection were analyzed using NGS after barcoding the peptide‐coding regions of the phage pools.
Phage display screening was performed by coating two wells of a 96‐well plate (Maxisorp, Thermo Fisher Scientific) with 100 µL of 5 µg mL^−1 TIR domains overnight; then, the coated wells were blocked with 200 µL of blocking buffer (0.2% BSA in PBS) and set aside for 1 h at 4 °C with gentle shaking. Next, 100 µL of the phage library was added to the wells and incubated for 1 h at room temperature (RT; 20 – 22 °C) with gentle shaking. The plate was washed four times with PBS containing 0.5% Tween‐20; the bound phages were eluted by adding 100 µL of 100 mM HCl to each well. The elute was neutralized with 10 µL of 1.0 M Tris‐HCl (pH 11.0). E. coli TG1 cells were grown to the log phase (A600 = ≈0.6), and 1 mL of the culture was incubated with 100 µL of the eluted phages for 30 min at 37 °C, with shaking at 200 rpm. Next, 1 µL of M13KO7 helper phages was added, followed by incubation for 45 min at 37 °C, with shaking. Subsequently, the cells were transferred to 25 mL of 2× yeast extract tryptone/carbenicillin/kanamycin medium and incubated overnight at 37 °C with shaking at 200 rpm. The amplified phages were precipitated with 20% PEG‐8000/2.5 M NaCl to be used for the next round of selection.
The naïve T‐Surf libraries in P8 and P3 and the enriched phage pools after four rounds were barcoded for NGS as previously described.^[ [59] ^] Briefly, 5 µL of the phage pool was used as a template for 20 cycles of a 50 µL PCR reaction using […] each of forward and reverse barcoded primers and PrimeSTAR Max DNA Polymerase. The PCR products were purified using Expin Gel SV (GeneAll). The NGS samples were quantified using qPCR, following the qPCR Quantification Protocol Guide (KAPA Library Quantification kits for Illumina Sequencing Platform), and qualified using the TapeStation High Sensitivity D1000 ScreenTape (Agilent Technologies). The indexed libraries were further sequenced by Macrogen (Seoul, Republic of Korea) using the NovaSeq platform (Illumina) with 100 bp paired‐end reads. The reads were demultiplexed by barcodes and filtered for an average Phred quality score of at least 30, followed by trimming the flanking consensus sequences using Cutadapt (version 2.3). Peptide sequence populations were analyzed according to the read counts.

[1] = P3_MyD88: rank by count after grouping
[2] = P3_MyD88: rank by count before grouping
[3] = P8_MyD88: rank by NGS read count after grouping
[4] = P8_MyD88: rank by NGS read count before grouping
[5] = P8_MyD88 pool: P8 T-Surf phage library
[6] = selection against MyD88 TIR, rank by count after grouping
[7] = selection against MyD88 TIR, rank by count before grouping
[8] = P8_MyD88: rank by count after grouping
[9] = P8_MyD88: rank by count before grouping
[10] = selection against MyD88, rank by count after grouping
[11] = selection against MyD88, rank by count before grouping
[12] = 4R selection against MyD88, rank after grouping
[13] = 4R selection against MyD88, rank before grouping
[14] = selection against MyD88, rank after grouping
[15] = selection against MyD88, rank before grouping
[16] = P3_MyD88 pool: P3 T-Surf phage library

T1 sequence (Q99836 148-296): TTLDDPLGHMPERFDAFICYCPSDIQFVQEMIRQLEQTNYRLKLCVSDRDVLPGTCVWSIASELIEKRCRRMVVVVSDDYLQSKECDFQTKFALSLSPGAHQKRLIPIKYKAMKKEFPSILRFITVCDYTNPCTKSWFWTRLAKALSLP

Rank (after) [1]: 409
Rank (before) [2]: 2224
Sequence: EIVKFVLAKLVHLEHP

Rank (after) [3]: 935
Rank (before) [4]: 3177
Sequence: ELDFASNMEQFWDRLYY

Rank (after) [3]: 956
Rank (before) [4]: 3183
Sequence: ELDFSHFWLFDAGGDAAI

Population [5]: 0.0154%
Sequence: ELDFSHFWLFDAGGEA

P8_MyD88 Rank (after) [6]: 229
P8_MyD88 Rank (before) [7]: 476
Sequence: ELDFSHFWLFDGDAGEEP

Population [5]: 0.02%
Sequence: ELDFSHFWLFDGHAGGEA

Rank (after) [3]: 1003
Rank (before) [4]: 3187
Sequence: ELDFSHFWLFDGHATGAA

Population [5]: 0.0177%
Sequence: ELDFSHFWLFDGHATGEA

Rank (after) [3]: 917
Rank (before) [4]: 3182
Sequence: ELDFSHFWLFDGQAGGAA

P8_MyD88 Rank (after) [6]: 218
P8_MyD88 Rank (before) [7]: 358
Sequence: ELDFSHFWLFDGQAT

Rank (after) [8]: 120
Rank (before) [9]: 174
Population [5]: 0.00809%
Sequence: ELDFSHFWLFDGQATGEA

P8_MyD88 Rank (after) [6]: 216
P8_MyD88 Rank (before) [7]: 359
Sequence: ELDFSHFWLFDGQSGKDA

Population [5]: 0.02%
Sequence: ELDFSHFWLFEAGGDA

Population [5]: 0.0224%
Sequence: ELDFSHFWLFEARGDA

Rank (after) [8]: 127
Rank (before) [9]: 141
Population [5]: 0.0116%
Sequence: ELDFSHFWLFEGHATGEA

P8_MyD88 Rank (after) [6]: 249
P8_MyD88 Rank (before) [7]: 477
Sequence: ELDGDFGRNLWDLWRL

Rank (after) [8]: 157
Rank (before) [9]: 173
Population [5]: 0.00809%
Sequence: ELWVLRYLLPTLEEQQ

P8_MyD88 Rank (after) [6]: 192
P8_MyD88 Rank (before) [7]: 247
Sequence: ENYAFSSWALGELLHI

Rank (after) [3]: 927
Rank (before) [4]: 3199
Sequence: EPPGLDWVYERLVVLF

Rank (after) [8]: 94
Rank (before) [9]: 478
Sequence: EPQDLDWFYERLVSLL

Rank (after) [3]: 1009
Rank (before) [4]: 3148
Sequence: EPQDLDWLYERLVSLF

P3_MyD88 Rank (after) [6]: 264
P3_MyD88 Rank (before) [7]: 2209
Sequence: ERLFIETQNVNKDLIG

Rank (after) [1]: 481
Rank (before) [2]: 2231
Sequence: ESILNHMRRSSQSIAN

P8_MyD88 Rank (after) [6]: 212
P8_MyD88 Rank (before) [7]: 323
Sequence: EWALHQLQQIIKWHQT

P8_MyD88 Rank (after) [6]: 275
P8_MyD88 Rank (before) [7]: 586
Sequence: EWFYERLFSQMRKDIK

P3_MyD88 Rank (after) [10]: 695
P3_MyD88 Rank (before) [11]: 2125
Sequence: EWGDPYFWSKLRYAM

P3_MyD88 Rank (after) [12]: 632
P3_MyD88 Rank (before) [13]: 2128
Sequence: EWILSKLSQHILKREK

Rank (after) [1]: 446
Rank (before) [2]: 2130
Sequence: EWIREHLRLALKERLP

P3_MyD88 Rank (after) [14]: 503
P3_MyD88 Rank (before) [15]: 2131
Sequence: EWIREQFRRALKERLP

P3_MyD88 Rank (after) [12]: 637
P3_MyD88 Rank (before) [13]: 2133
Sequence: EWIREQLCLALKERLP

P3_MyD88 Rank (after) [10]: 742
P3_MyD88 Rank (before) [11]: 2176
Sequence: EWIREQLHPALNERLP

Rank (after) [1]: 165
Rank (before) [2]: 648
Sequence: EWIREQLRPALDELVL

Rank (after) [1]: 144
Rank (before) [2]: 649
Sequence: EWIREQLRPALEKAGKL

Rank (after) [1]: 147
Rank (before) [2]: 651
Sequence: EWIREQLRPALKAQ

Population [16]: 0.00437%
Sequence: EWIREQLRPALKEHLP

Rank (after) [1]: 112
Rank (before) [2]: 995
Sequence: EWIREQLRPALKERL

Population [16]: 0.00466%
Sequence: EWIREQLRPALKERLP

P3_MyD88 Rank (after) [12]: 619
P3_MyD88 Rank (before) [13]: 2151
Sequence: EWIREQLRPALKERMT

Rank (after) [1]: 434
Rank (before) [2]: 2155
Sequence: EWIREQLRPALKNGW

P3_MyD88 Rank (after) [14]: 520
P3_MyD88 Rank (before) [15]: 2142
Sequence: EWIREQLRPALKNVC

Rank (after) [1]: 179
Rank (before) [2]: 2160
Sequence: EWIREQLRPELQERLP

P3_MyD88 Rank (after) [12]: 639
P3_MyD88 Rank (before) [13]: 2171
Sequence: EWIREQRRSALKERLP

Rank (after) [1]: 388
Rank (before) [2]: 2178
Sequence: EWIRTAASGAERTSA

P3_MyD88 Rank (after) [12]: 586
P3_MyD88 Rank (before) [13]: 2127
Sequence: EWIWDKLIYALSRNPH

Rank (after) [1]: 442
Rank (before) [2]: 2126
Sequence: EWLREQLRSARKERLP

Rank (after) [1]: 421
Rank (before) [2]: 2179
Sequence: EWMREQLRPPLKERLP

P3_MyD88 Rank (after) [12]: 599
P3_MyD88 Rank (before) [13]: 2180
Sequence: EWMREQRRPALKERLP

P3_MyD88 Rank (after) [12]: 608
P3_MyD88 Rank (before) [13]: 2185
Sequence: EWNRKQKRPDQKERLQ

P3_MyD88 Rank (after) [6]: 239
P3_MyD88 Rank (before) [7]: 2184
Sequence: EWSREQLRPALKESLP

Rank (after) [8]: 151
Rank (before) [9]: 166
Population [5]: 0.00886%
Sequence: EWVKNSLLQYLDSQFE

Rank (after) [8]: 437
Rank (before) [9]: 3162
Sequence: EWVWDYLLPNLESPAG

P8_MyD88 Rank (after) [12]: 642
P8_MyD88 Rank (before) [13]: 3172
Sequence: EYRNESKSVWDIINAI

P8_MyD88 Rank (after) [14]: 501
P8_MyD88 Rank (before) [15]: 1303
Sequence: FAANPLSFHVRVKLGG

P8_MyD88 Rank (after) [12]: 603
P8_MyD88 Rank (before) [13]: 1307
Sequence: FDARTWFFQEMGIIVE

Rank (after) [8]: 404
Rank (before) [9]: 813
Sequence: FDASSSWALDELLRILY

Rank (after) [3]: 930
Rank (before) [4]: 1313
Sequence: FDASTWFFQEWARFL

Rank (after) [8]: 413
Rank (before) [9]: 814
Sequence: FDASTWWLRELLQIA

P8_MyD88 Rank (after) [6]: 213
P8_MyD88 Rank (before) [7]: 296
Sequence: FDYELQQSLFHALIMR

Rank (after) [8]: 105
Rank (before) [9]: 108
Population [5]: 0.02%
Sequence: FFSGFRELEDFISKLW

P8_MyD88 Rank (after) [10]: 681
P8_MyD88 Rank (before) [11]: 1297
Sequence: FFSGFREQEDFISKRW

P8_MyD88 Rank (after) [6]: 194
P8_MyD88 Rank (before) [7]: 252
Sequence: FFWMQLRSLLGTPGGL

P8_MyD88 Rank (after) [10]: 695
P8_MyD88 Rank (before) [11]: 1302
Sequence: FGDHRMWWEDLVGIVD

P8_MyD88 Rank (after) [6]: 252
P8_MyD88 Rank (before) [7]: 421
Sequence: FHGDELRDNFIRYLVW

Rank (after) [8]: 103
Rank (before) [9]: 107
Population [5]: 0.0216%
Sequence: FIDFLFDAFETKGIFV

P8_MyD88 Rank (after) [6]: 208
P8_MyD88 Rank (before) [7]: 297
Sequence: FIRYLVWGLRDERLNL

Rank (after) [3]: 964
Rank (before) [4]: 1341
Sequence: FISDLYEALTRAGILA

P3_MyD88 Rank (after) [14]: 515
P3_MyD88 Rank (before) [15]: 1343
Sequence: FLSYLALEKRFSPIGQ

P3_MyD88 Rank (after) [14]: 536
P3_MyD88 Rank (before) [15]: 1378
Sequence: FLSYRALEKRFGPLVQ

P3_MyD88 Rank (after) [12]: 625
P3_MyD88 Rank (before) [13]: 1351
Sequence: FLSYRALEKRFGRLA

P3_MyD88 Rank (after) [14]: 498
P3_MyD88 Rank (before) [15]: 1376
Sequence: FLSYREGLWRLLELSKK

Rank (after) [1]: 190
Rank (before) [2]: 1344
Sequence: FLSYRSLEKRFGPIGP

P8_MyD88 Rank (after) [6]: 234
P8_MyD88 Rank (before) [7]: 371
Sequence: FRGEDIADNFLSHLVVAL

Rank (after) [3]: 908
Rank (before) [4]: 2280
Sequence: GALDEVRKILYANETM

P3_MyD88 Rank (after) [10]: 719
P3_MyD88 Rank (before) [11]: 1830
Sequence: GEDTLYTFTGHLQATL

P3_MyD88 Rank (after) [10]: 740
P3_MyD88 Rank (before) [11]: 1831
Sequence: GEDTRLPLPAICMRP

P3_MyD88 Rank (after) [6]: 240
P3_MyD88 Rank (before) [7]: 917
Sequence: GEDTRYTFTGHLHRYLVQRGV

P3_MyD88 Rank (after) [10]: 730
P3_MyD88 Rank (before) [11]: 1850
Sequence: GEDTRYTYRPSACDP

P3_MyD88 Rank (after) [12]: 633
P3_MyD88 Rank (before) [13]: 1826
Sequence: GEVPRYIFTGHLHATQ

Rank (after) [8]: 122
Rank (before) [9]: 129
Population [5]: 0.0143%
Sequence: GFIDNLYQALANMGIH

Rank (after) [1]: 124
Rank (before) [2]: 1793
Sequence: GFLYHAFAREGIKIFM

Rank (after) [1]: 172
Rank (before) [2]: 912
Sequence: GFLYQAFAREGLWRLLELSKK

Rank (after) [1]: 426
Rank (before) [2]: 1811
Sequence: GFLYQALARDGFKIFM
